Data reported in patent publication US20130281449A1, “Oxazine Derivatives and their Use in the Treatment of Neurological Disorders” (NOVARTIS AG, priority 2011, published 2013).
Counter-ions that a name gives are not always drawn.

Columns and labels:
[1] = test system: Cellular Release of Amyloid Peptide 1-40; test: Test 4: Inhibition of Cellular Release of Amyloid Peptide 1-40; type: cell-based, Chinese hamster; details: Cricetulus griseus, 24 h; read-out: Amyloid-β1-40 release IC50
Protocol: Chinese hamster ovary cells are transfected with the human gene for amyloid precursor protein. The cells are plated at a density of 8000 cells/well into 96-well microtiter plates and cultivated for 24 hours in DMEM cell culture medium containing 10% FCS. The test compound is added to the cells at various concentrations, and the cells are cultivated for 24 hours in the presence of the test compound. […] The potency of the compound is calculated from the percentage of inhibition of amyloid peptide release as a function of the test compound concentration.

Human BACE-1 = Human BACE-1 (Homo sapiens, UniProt P56817); test: Test 1: Inhibition of Human BACE-1; type: biochemical; details: mean IC50 values in Test 1; recombinant BACE-1, pH 4.5
Chain of Human BACE-1 (P56817 46-457 limits assumed): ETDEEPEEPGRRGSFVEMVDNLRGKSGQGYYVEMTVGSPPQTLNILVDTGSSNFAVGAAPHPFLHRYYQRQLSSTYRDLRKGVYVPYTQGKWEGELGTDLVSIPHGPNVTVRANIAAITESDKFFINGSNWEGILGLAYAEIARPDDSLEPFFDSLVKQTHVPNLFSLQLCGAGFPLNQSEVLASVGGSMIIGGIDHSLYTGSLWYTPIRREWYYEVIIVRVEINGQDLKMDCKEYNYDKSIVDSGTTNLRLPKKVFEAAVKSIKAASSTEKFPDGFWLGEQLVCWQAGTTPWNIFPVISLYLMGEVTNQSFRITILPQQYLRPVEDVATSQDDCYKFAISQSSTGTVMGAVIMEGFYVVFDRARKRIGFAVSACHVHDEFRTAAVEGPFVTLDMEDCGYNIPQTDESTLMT
Protocol: Test 1: Inhibition of Human BACE-1
IC50 values are calculated from percentage of inhibition of BACE-1 activity as a function of the test compound concentration.

SMILES | IC50 [1] | IC50 (Human BACE-1)
[2H]c1nc(C(=O)Nc2cc(F)c(F)c([C@]3(C(F)F)COCC(N)=N3)c2)c(C([2H])([2H])[2H])c([2H])c1Cl [Example 16, 4,6-Dideutero-5-chloro-3-trideuteromethyl-pyridine-2-carboxylic acid [3-((R)-5-amino-3-difluoromethyl-3,6-dihydro-2H-[1,4]oxazin-3-yl)-4,5-difluoro-phenyl]-amide] | 14 nM | 14 nM
[2H]C([2H])([2H])Oc1cnc(C(=O)Nc2ccc(F)c([C@]3(C(F)F)COCC(N)=N3)c2)c(N)n1 [Example 3, 3-Amino-5-tris-deutero-methoxy-pyrazine-2-carboxylic acid [3-((R)-5-amino-3-difluoromethyl-3,6-dihydro-2H-[1,4]oxazin-3-yl)-4-fluoro-phenyl]-amide] | 9 nM | 25 nM
Cc1cc(C(F)F)cnc1C(=O)Nc1ccc(F)c([C@]2(C(F)F)COCC(N)=N2)c1 [Example 8, 5-Difluoromethyl-3-methyl-pyridine-2-carboxylic acid [3-((R)-5-amino-3-difluoromethyl-3,6-dihydro-2H-[1,4]oxazin-3-yl)-4-fluoro-phenyl]-amide hydrochloride] | 8 nM | 54 nM

More lines, now with the values ahead:

IC50 [1] | IC50 (Human BACE-1) | SMILES
160 nM | 67 nM | Cc1nc(C(=O)Nc2ccc(F)c([C@]3(C)CO[C@@](C)(C(F)(F)F)C(N)=N3)c2)c(C)o1 [Example 23, 2,5-Dimethyl-oxazole-4-carboxylic acid [3-((3R,6R)-5-amino-3,6-dimethyl-6-trifluoromethyl-3,6-dihydro-2H-[1,4]oxazin-3-yl)-4-fluoro-phenyl]-amide hydrochloride]
41 nM | 13 nM | [2H]C([2H])([2H])OC([2H])([2H])c1cc2c(Cl)c[nH]c2nc1C(=O)Nc1ccc(F)c([C@]2(C)CO[C@@](C)(C(F)(F)F)C(N)=N2)c1 [Example 33, 3-Chloro-5-trideuteromethoxy-dideuteromethyl-1H-pyrrolo[2,3-b]pyridine-6-carboxylic acid [3-((3R,6R)-5-amino-3,6-dimethyl-6-trifluoromethyl-3,6-dihydro-2H-[1,4]oxazin-3-yl)-4-fluoro-phenyl]-amide]
18 nM | 28 nM | [2H]C([2H])([2H])Oc1cnc(C(=O)Nc2ccc(F)c([C@]3(C)CO[C@@](C)(C(F)(F)F)C(N)=N3)c2)c(C)c1 [Example 36, 5-Trideuteromethoxy-3-methyl-pyridine-2-carboxylic acid [3-((3R,6R)-5-amino-3,6-dimethyl-6-trifluoromethyl-3,6-dihydro-2H-[1,4]oxazin-3-yl)-4-fluoro-phenyl]-amide]
